Experiments:
ACLY = ACLY (Homo sapiens, UniProt P53396); settings: description of the Tocris compound; read-out: IC50 as ACLY inhibitor; cited from earlier work
[1] = test system: LNCaP prostate cancer cells; settings: literature; cited from earlier work
[2] = Deoxyribose degradation assay (hydroxyl radical scavenging); assay type: biochemical; settings: NS = not statistically significant
Method in brief: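 Hydroxyl radicals from Fenton's reaction degrade 2-deoxyribose. Scavenging is measured as inhibition of this oxidation, read spectrophotometrically as pink chromogen absorbance at 532 nm.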

[3] = test system: MCF-7 ER+ breast cancer cells; assay: XTT cell growth assay, MCF-7 ER+; assay type: cell-based, human; settings: NS = not statistically significant
Method in brief: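 MCF-7 ER+ cells grown 24 h in DMEM, then given 5, 10 or 50 μM compound in serum-free DMEM for 24 h. XTT reagent added for 4 h. Absorbance read at 450 nm with 630 nm reference; serum-free DMEM alone as negative control.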

pACLY (S455) = assay: ELISA of pACLY (S455) / ACLY enzymatic activity in PANC-1 cells; assay type: cell-based, human; settings: 5 μM
Method: ELISA assay was used to evaluate the effect of GS compounds on protein activity levels in PANC-1 cancer cells. PANC-1 cells were serum-starved overnight and then treated with rIGF1 (100 ng/mL) for 24 hours, with or without GS27 (5 μM). The levels of the following proteins were evaluated by ELISA assay: a) p70 S6 (T389) (cat no. 54164C, Cell Signaling); b) pAKT (S473), (cat no. 80895, Cell Signaling); c) pACLY (S455), (cat no. okag1672, Avivasysbio); d) pAMPK (T172) (cat no. 7959C, Cell Signaling) and e) p65/NFKB (S536), (cat no. 7173, Cell Signaling).
PANC-1 is a human pancreatic ductal adenocarcinoma cell line derived from the carcinoma of a person.
The molecular mechanism of action of GS27, a compound that has exerted potent anti-cancer activity in different cancer cell lines including pancreatic cancer cells, was investigated. Oleacein has been implicated to have anti-inflammatory and metabolic effects, thus the potential effects of GS27 in different metabolic and inflammatory pathways were evaluated. Specifically, the protein levels of p70 S6 (T389), pAKT (S473), pACLY (S455), pAMPK (T172) and p65/NFKB (S536) were evaluated by ELISA assay in PANC-1 pancreatic cancer cells treated with 5 μM GS27. GS27 reduced p70 S6 and AKT phosphorylation levels, while it increased AMPK phosphorylation.
The effects of different GS compounds on ACLY enzymatic activity were evaluated by ELISA assay in PANC-1 pancreatic cancer cells. […] This finding is unexpected, since GS21 has a very similar structure with GS27, with the only difference being the presence of an oxygen atom in ester GS21 instead of a sulfur atom in thioester GS27.

IL-1β = assay: ELISA of IL-1β in PMA/LPS-treated THP-1 cells; assay type: cell-based, human; settings: THP-1, PMA then LPS 100 ng/ml 24 hours, 5 uM compound added 2 hours before LPS
Method: (§1) Human monocytes (THP-1, ATCC) were cultured in RPMI 1640 media supplemented with HEPES buffer (10 mM), sodium pyruvate (1 mM), glucose (4.5 g/L), fetal bovine serum (10%), penicillin (100 U/mL), streptomycin (100 μg/mL), and 2-mercaptoethanol (0.05 mM). THP-1 cells were treated with PMA (100 ng/ml) for 48 hours and then washed and rested for 24 hours in PMA-free media. These cells were treated with LPS (100 ng/ml) for 24 hours in the presence or absence of 5 uM of […] compounds (added 2 hours before LPS). Cell culture supernatants were collected and IL-1β (cat. No DLB50, R&D Systems), TNF-α (cat. no. DTA00D, R&D Systems) and IL-6 (cat. No D6050, R&D Systems) protein levels were evaluated by ELISA assay.

TNF-α = assay: ELISA of TNF-α in PMA/LPS-treated THP-1 cells; assay type: cell-based, human; settings: THP-1, PMA then LPS 100 ng/ml 24 hours, 5 uM compound added 2 hours before LPS
Method: as §1

IL-6 = assay: ELISA of IL-6 in PMA/LPS-treated THP-1 cells; assay type: cell-based, human; settings: THP-1, PMA then LPS 100 ng/ml 24 hours, 5 uM compound added 2 hours before LPS
Method: as §1

[4] = after olive oil consumption, literature; cited from earlier work
HepG2 liver cancer tumor = assay: HepG2 xenograft mouse model; assay type: in vivo, nu/nu mice; settings: 20 mg/kg i.p. every 5 days, until 20 days post-treatment
Method: The effect of GS27 on liver cancer tumor growth in mice was evaluated in a HepG2 xenograft mouse model. HepG2 is a human liver cancer cell line, obtained from ATCC (cat. No HB-8065). Since hepatocellular carcinoma is often treated with the chemotherapeutic agent doxorubicin and embolization, results were compared to those obtained with doxorubicin.
Xenograft tumors were generated by injecting HepG2 liver cancer cells (2.5×10^6) into the right flank of female nu/nu mice (Charles River Laboratories). All mice developed tumors in 10 days with size of approximately 100 mm3. For each experiment, mice were randomly distributed into equal groups (4 mice per group) that were untreated, or treated by intraperitoneal injections every 5 days with 20 mg/kg GS27 or doxorubicin. Tumor volume (average, SD) was evaluated until 20 days post-treatment.

ACLY, sequence (P53396 whole entry): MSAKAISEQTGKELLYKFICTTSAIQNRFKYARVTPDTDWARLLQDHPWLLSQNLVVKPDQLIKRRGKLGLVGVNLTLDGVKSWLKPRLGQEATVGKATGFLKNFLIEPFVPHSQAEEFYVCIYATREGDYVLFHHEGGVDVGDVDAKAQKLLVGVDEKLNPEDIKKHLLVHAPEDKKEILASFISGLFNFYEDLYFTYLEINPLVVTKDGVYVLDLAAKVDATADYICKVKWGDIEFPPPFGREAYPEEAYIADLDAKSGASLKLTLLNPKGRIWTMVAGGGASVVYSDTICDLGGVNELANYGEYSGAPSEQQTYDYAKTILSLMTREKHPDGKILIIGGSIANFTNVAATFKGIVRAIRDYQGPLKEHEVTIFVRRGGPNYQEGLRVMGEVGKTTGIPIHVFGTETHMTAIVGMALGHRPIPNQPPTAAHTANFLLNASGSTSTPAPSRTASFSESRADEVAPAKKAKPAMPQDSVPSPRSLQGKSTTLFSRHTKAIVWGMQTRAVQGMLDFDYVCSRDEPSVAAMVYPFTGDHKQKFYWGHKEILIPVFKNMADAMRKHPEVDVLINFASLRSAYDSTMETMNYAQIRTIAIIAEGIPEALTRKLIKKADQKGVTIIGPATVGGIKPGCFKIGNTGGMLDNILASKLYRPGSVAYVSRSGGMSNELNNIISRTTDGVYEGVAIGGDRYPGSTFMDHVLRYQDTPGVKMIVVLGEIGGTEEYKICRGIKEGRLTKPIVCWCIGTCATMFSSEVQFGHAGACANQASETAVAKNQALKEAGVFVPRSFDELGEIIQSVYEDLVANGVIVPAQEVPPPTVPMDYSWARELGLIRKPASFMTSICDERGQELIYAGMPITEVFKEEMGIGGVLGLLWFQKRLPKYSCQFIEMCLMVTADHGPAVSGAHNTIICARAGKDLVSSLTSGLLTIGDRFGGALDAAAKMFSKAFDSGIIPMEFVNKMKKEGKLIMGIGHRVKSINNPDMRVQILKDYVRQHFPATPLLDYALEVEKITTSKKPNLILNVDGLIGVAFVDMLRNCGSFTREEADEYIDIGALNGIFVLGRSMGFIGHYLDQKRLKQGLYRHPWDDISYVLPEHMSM

COc1ccc(-c2ccccc2)cc1NS(=O)(=O)c1cc(Cl)cc(Cl)c1O [BMS303141]
IC50 (ACLY): 130 nM

CNC(=O)c1ccc(N2C(=S)N(c3ccc(C#N)c(C(F)(F)F)c3)C(=O)C2(C)C)cc1F [enzalutamide]
concentration found to reduce LNCaP prostate cancer cell growth [1]: 10 µM

C/C=C(/C=O)[C@@H](CC=O)CC(=O)OCc1cc2ccccc2[nH]1 [GS25, (3S,4E)-4-formyl-3-(2-oxoethyl)-4-hexenoic acid (1H-indol-2-yl)methyl ester]
Deoxyribose Degradation Assay IC50 [2]: 16.2 μg extract/mL | Effectiveness to suppress MCF7 cell growth (cell growth inhibition) ([3]; 50 uM, 24 h): best efficacy | inhibition at 50 µM ([3]; Homo sapiens, MCF7, 24 h, read-out: Effectiveness to suppress MCF7 cell growth (cell growth inhibition)): 88.4% | ACLY enzymatic activity (ELISA) (pACLY (S455)): small effect | IL-1β protein levels (IL-1β): reducing substantially | TNF-α protein levels (TNF-α): better effect on the suppression | IL-6 protein levels (IL-6): effective for reducing

OCCc1ccc(O)cc1 [tyrosol]
time of peak plasma levels after ingestion [4]: 1 h

COc1cccc2c1C(=O)c1c(O)c3c(c(O)c1C2=O)C[C@@](O)(C(=O)CO)C[C@@H]3O[C@H]1C[C@H](N)[C@H](O)[C@H](C)O1 [doxorubicin, reference compound]
reduction in the tumor size, HepG2 liver cancer (HepG2 liver cancer tumor): 13%

OCCc1ccc(O)c(O)c1 [Hydroxytyrosol]
time of peak plasma levels after ingestion [4]: 1 h

— patent US12414960B2, “Analogues of oleuropein and oleacein and uses thereof” (Attica Sciences Ltd., priority 2020, dated 2025)
